Experimental data: US12528817B2, “Method of inhibiting kinase by mesylate salts of triazolopyrazine derivatives” (ABION Inc., priority 2022, dated 2026)
Where “and” joins values, the source holds several entries; their conditions need not be identical. Identical values can stand only once. Entries after “also recorded” stand apart in the source; their conditions may differ.

Legend:
[1] = DVS analysis (hygroscopicity, moisture sorption); assay type: physicochemical; conditions: for Change in mass at 80% RH / Change of mass in the range 40→95% RH / Water vapor uptake at 95% RH / Change in mass in the range 0→40% RH: 25° C.; for Solid form after DVS analysis: XRPD at end of DVS; for Hygroscopicity classification (European Pharmacopeia): based on change in mass at 80% RH; for Change of mass in the range 40→95% RH / Water vapor uptake at 95% RH: first sorption half-cycle; for Change in mass in the range 0→40% RH: last sorption half-cycle; for Reversibility of water uptake: sorption-desorption-sorption 40-95-0-40% RH
Procedure: Differences in hygroscopicity (moisture uptake) of the various forms of a solid material provided a measure of their relative stability at increasing relative humidity. Moisture sorption isotherms of small samples were obtained using a DVS-1 system from Surface Measurement Systems (London, UK); this instrument is suitable for use with as little as a few milligrams of sample, with an accuracy of 0.1 μg. The relative humidity was varied during sorption-desorption-sorption (40-95-0-40% RH) at a constant temperature of 25° C., typically with a hold time of 60 minutes per step (10% relative humidity step). At the end of the DVS experiment the sample was measured by XRPD.
The hygroscopicity was classified according to the European Pharmacopoeia Hygroscopicity classification.

[2] = Long-term physical stability study, solid form by HT-XRPD; assay type: physicochemical
Procedure: (§1) HT-XRPD patterns were obtained using the Crystallics T2 high-throughput XRPD set-up. The plates were mounted on a Bruker General Area Detector Diffraction System (GADDS) equipped with a VANTEC-500 gas area detector corrected for intensity and geometric variations. The calibration of the measurement accuracy (peaks position) was performed using NIST SRM1976 standard (Corundum).
(§2) Data collection was carried out at room temperature using monochromatic Cu Kα radiation in the 2θ region between 1.5° and 41.5°, which is the most distinctive part of the XRPD pattern. The diffraction pattern of each well was collected in two 20 ranges (1.5°≤2θ≤21.5° for the first frame, and 19.5°≤2θ≤41.5° for the second) with an exposure time of 90 s for each frame. No background subtraction or curve smoothing was applied to the XRPD patterns. The carrier material used during HT-XRPD analysis was transparent to X-rays and contributed only slightly to the background.

[3] = Long-term stability study, water content by TGA/TGMS; assay type: physicochemical
Procedure: Mass loss due to solvent or water loss from the crystals was determined by TGA. […] The TGA/DSC 3+ was calibrated for temperature with samples of indium and aluminum. Samples (circa 2 mg) were weighed into 100 μL aluminum crucibles and sealed. The seals were pin-holed, and the crucibles heated in the TGA from 25 to 300° C. at a heating rate of 10° C./min. Dry N2 gas was used for purging.
The gases coming from the TGA samples were analyzed by a mass spectrometer Omnistar GSD 301 T2 (Pfeiffer Vacuum GmbH, Germany). The latter is a quadrupole mass spectrometer, which analyzes masses in the […] of 0-200 amu.

[4] = Long-term chemical stability study, API chemical purity by HPLC/LCMS; assay type: physicochemical
Procedure: Assay and purity assessment of the novel crystalline salts • Method name: S19061_01.MV • Sample: • Concentration: 0.3 mg/ml • Diluent: Acetonitrile/water (50/50)

[5] = Physical stability under accelerated aging conditions (AAC), HT-XRPD; conditions: for Form after AAC: 40° C./75% RH, 2 days (48 hours), HT-XRPD; for Physical stability after exposure to AAC: 40° C./75% RH for 2 days
Procedure: Upon completion of the aging time, the solids were separated from the liquid phases, dried under vacuum at 50° C. and analyzed by HT-XRPD. […] Subsequently, all the solids were exposed to accelerated aging conditions (AAC) at 40° C./75% RH for 48 hours and re-measured by HT-XRPD to test their physical stability.
as §1, §2

[6] = Thermal stability study in solution (LCMS); assay type: physicochemical; conditions: for Area %: approx. 0.3 mg/mL
Procedure: A thermal stability study was performed on ABN-401 to investigate the chemical stability of the starting material in solution when exposed to elevated temperatures. Solutions of ABN-401 were prepared in acetone, 1,2-dimethoxyethane, and acetonitrile with a concentration of approximately 0.3 mg/mL. Solutions were left at RT for 1 hour and successively, two aliquots of each solution were taken and heated at 50° C. and 80° C. for one hour. All these solutions were analyzed by LCMS. Additionally, the samples kept at RT were remeasured by LCMS after 24 hours to check the chemical degradation over time.
Starting material characterization and purity assessment of the novel crystalline forms of the free base: • Method name: S19061_03.M • Sample: • Concentration: 0.3 mg/ml • Diluent: Acetonitrile

Row | Compound | Change in mass at 80% RH [1] | Solid form after DVS analysis [1] | Hygroscopicity classification (European Pharmacopeia) [1] | Change of mass in the range 40→95% RH [1] [%] | Water vapor uptake at 95% RH [1] [%] | Change in mass in the range 0→40% RH [1] [%] | Reversibility of water uptake [1] | Solid form (HT-XRPD) after storage ([2]; 25° C./60% RH, 1 month) | Solid form (HT-XRPD) after storage ([2]; 25° C./60% RH, 3 months) | Solid form (HT-XRPD) after storage ([2]; 25° C./60% RH, 15 months) | Solid form (HT-XRPD) after storage ([2]; 25° C./60% RH, 24 months) | Mass loss attributed to water (TGA) after storage ([3]; 25° C./60% RH, 1 month) [%] | Mass loss attributed to water (TGA) after storage ([3]; 40° C./75% RH, 1 month) [%] | Mass loss attributed to water (TGA) after storage ([3]; 40° C./75% RH, 3 months) [%] | Mass loss attributed to water (TGA) after storage ([3]; 40° C./75% RH, 15 months) [%] | Mass loss attributed to water (TGA) after storage ([3]; 40° C./75% RH, 24 months) [%] | API chemical purity after storage ([4]; 25° C./60% RH, 24 months) | API chemical purity after storage ([4]; 40° C./75% RH, 24 months) | Form after AAC [5] | Physical stability after exposure to AAC [5] | further results
1 | CC1(C)[C@@H]2CC[C@@]1(CS(=O)(=O)O)C(=O)C2.CN1CCN(Cc2ccc(-c3cnc(N4CCOC(Cn5nnc6ncc(-c7cnn(C)c7)nc65)C4)nc3)cc2)CC1 (stereo in doubt) [Camp2] | 1.4% | Camp4 | slightly hygroscopic | 14.1 | 15.6 | 6.6 | irreversible | Camp2 | Camp2 | Camp2 | no solid form conversion; also recorded: Camp2 | 1.6 | 1.8 | 7.1 | 6.9 | 6.7 | 100 % (area %) | 88.6 % (area %) | Camp2 | – | Solid form (HT-XRPD) after storage ([2]; 40° C./75% RH, 1 month): Camp2; Solid form (HT-XRPD) after storage ([2]; 40° C./75% RH, 3 months): solid form conversion of Camp2 to Camp4; Solid form (HT-XRPD) after storage ([2]; 40° C./75% RH, 15 months): Camp4; Solid form (HT-XRPD) after storage ([2]; 40° C./75% RH, 24 months): a mixture of a camsylate salt and Form E of the free base; also recorded: Camp3+E; Mass loss attributed to water (TGA) after storage ([3]; 25° C./60% RH, 24 months): 1.9%; API chemical purity after storage ([4]; 25° C./60% RH, 1 month): 99.8 % (area %); API chemical purity after storage ([4]; 25° C./60% RH, 15 months): 99.5 % (area %) and 97.3 % (area %) and 100 % (area %); API chemical purity after storage ([4]; 40° C./75% RH, 1 month): 99.8 % (area %); API chemical purity after storage ([4]; 40° C./75% RH, 15 months): 93.7 % (area %) and 88.6 % (area %)
2 | CN1CCN(Cc2ccc(-c3cnc(N4CCOC(Cn5nnc6ncc(-c7cnn(C)c7)nc65)C4)nc3)cc2)CC1 (centres unmarked) [ABN-401] | – | – | – | – | – | – | – | – | – | – | – | 3.7 | 4.0 | 4.4 | 3.7 | 5.2 | 87.2 % (area %) | 90.7 % (area %) | – | – | Area % ([6]; 1,2-dimethoxyethane, 1 h/50° C.): 98.6%; Area % ([6]; 1,2-dimethoxyethane, 1 h/80° C.): 97.7%; Area % ([6]; 1,2-dimethoxyethane, 1 h/RT): 99.0%; Area % ([6]; 1,2-dimethoxyethane, 24 h/RT): 98.8%; Area % ([6]; ACN, 1 h/50° C.): 99.0%; Area % ([6]; ACN, 1 h/80° C.): 98.7%; Area % ([6]; ACN, 1 h/RT): 99.0%; Area % ([6]; ACN, 24 h/RT): 98.1%; Area % ([6]; Acetone, 1 h/50° C.): 99.0%; Area % ([6]; Acetone, 1 h/80° C.): 99.0%; Area % ([6]; Acetone, 1 h/RT): 98.8%; Area % ([6]; Acetone, 24 h/RT): 98.5%; Chemical degradation in solution ([6]; samples kept at 50° C. and 80° C. for one hour, acetone, 1,2-dimethoxyethane, acetonitrile): No significant chemical degradation; Mass loss attributed to water (TGA) after storage ([3]; 25° C./60% RH, 3 months): 4.1%; Mass loss attributed to water (TGA) after storage ([3]; 25° C./60% RH, 15 months): 3.3%; Mass loss attributed to water (TGA) after storage ([3]; 25° C./60% RH, 24 months): 5.3%
3 | CC1(C)[C@@H]2CC[C@@]1(CS(=O)(=O)O)C(=O)C2.CN1CCN(Cc2ccc(-c3cnc(N4CCOC(Cn5nnc6ncc(-c7cnn(C)c7)nc65)C4)nc3)cc2)CC1 (centres unmarked) [Camp1] | – | – | – | – | – | – | – | – | – | – | – | – | – | – | – | – | – | – | Camp1 | physically stable | –
4 | CN1CCN(Cc2ccc(-c3cnc(N4CCOC(Cn5nnc6ncc(-c7cnn(C)c7)nc65)C4)nc3)cc2)CC1.CS(=O)(=O)O (centres unmarked) [Mes1] | – | – | – | – | – | – | – | – | – | – | – | – | – | – | – | – | – | – | Mes1 | physically stable | –
5 | CN1CCN(Cc2ccc(-c3cnc(N4CCOC(Cn5nnc6ncc(-c7cnn(C)c7)nc65)C4)nc3)cc2)CC1.CS(=O)(=O)O.CS(=O)(=O)O (centres unmarked) [Mes2] | approximately 12.2% | No change in the solid form | moderately hygroscopic | 24.8 | 29.6 | 4.6 | reversible | Mes2 | no significant differences in the powder patterns and Mes2 | additional diffraction peaks were detected at 15.1 and 16.5° 2θ; also recorded: Mes2+peaks | Mes6 | 8.0 | 10.8 | 11.2 | 9.6 | ~12.0 | 99.6 % (area %) | 100 % (area %) | Mes2 | physically stable | Solid form (HT-XRPD) after storage ([2]; 40° C./75% RH, 1 month): Mes2; Solid form (HT-XRPD) after storage ([2]; 40° C./75% RH, 3 months): showed these additional peaks; also recorded: Mes2+peaks; Solid form (HT-XRPD) after storage ([2]; 40° C./75% RH, 15 months): Mes4 and Mes4+peaks; Solid form (HT-XRPD) after storage ([2]; 40° C./75% RH, 24 months): Mes6; Mass loss attributed to water (TGA) after storage ([3]; 25° C./60% RH, 3 months): 7.7%; Mass loss attributed to water (TGA) after storage ([3]; 25° C./60% RH, 15 months): 6.5%; API chemical purity after storage ([4]; 25° C./60% RH, 1 month): 100 % (area %) and 99.7 % (area %); API chemical purity after storage ([4]; 25° C./60% RH, 3 months): 99.6 % (area %); API chemical purity after storage ([4]; 25° C./60% RH, 15 months): 100 % (area %); API chemical purity after storage ([4]; 40° C./75% RH, 1 month): 99.7 % (area %) and 97.2 % (area %); API chemical purity after storage ([4]; 40° C./75% RH, 3 months): 99.5 % (area %); API chemical purity after storage ([4]; 40° C./75% RH, 15 months): 100 % (area %)
6 | CN1CCN(Cc2ccc(-c3cnc(N4CCOC(Cn5nnc6ncc(-c7cnn(C)c7)nc65)C4)nc3)cc2)CC1.CS(=O)(=O)O.CS(=O)(=O)O.CS(=O)(=O)O (centres unmarked) [Mes3] | – | – | – | – | – | – | – | – | – | – | – | – | – | – | – | – | – | – | Mes3 (deliquescent) | became deliquescent | –
